Experiment: potency compared with codeine and morphine (test not described)
Details: no assay, value or method printed

SMILES	potency compared with morphine (compared with morphine)	potency compared with codeine (compared with codeine)
C[C@@H]1C[C@H]2[C@H]3Cc4ccc(O)c5c4[C@@]2(CCN3C)[C@@H](O5)C1O (stereo partly drawn) [Compound 9, 7β-Methyl-7,8-dihydromorphine]	increased potency	
COc1ccc2c3c1O[C@H]1C(O)[C@H](C)C[C@H]4[C@@H](C2)N(C)CC[C@]314 (stereo partly drawn) [Compound 8, 7β-Methyl-7,8-dihydrocodeine]		increased potency
